From patent EP0940081A1, “Combinations of active agents and disinfectants, preservatives and antiseptics containing same” (Bode Chemie GmbH & Co., priority 1998, dated 1999)
Read-outs that look alike come from different tables or passages of the source.

Legend:
Assay type in all cases: cell-based
[1] = test system: Staphylococcus aureus ATCC 6538; assay: Röhrchenverdünnungstest, bacteriostatic activity; parameters: key: +: Wachstum; -: kein Wachstum; details: 72 h bei 37 °C
Protocol: (§1) Methodik der Prüfung auf bakteriostatische und fungistatische Wirksamkeit im Röhrchenverdünnungtest: In sterile Reagenzröhrchen werden je 5 ml der Verdünnungen der Prüfsubstanzen in Wasser standardisierter Härte mit 5 ml doppelt konzentrierter Caseinpepton-Sojamehl-Pepton-Lösung (CSL) vermischt. Zur Bestimmung der bakteriostatischen Wirkung werden die Röhrchen durch Zugabe von 0,1 ml einer 1 : 10 mit CSL verdünnten, 24 h bei 37 °C bebrüteten CSL-Kultur beimpft. Zur Prüfung der fungistatischen Wirkung werden je 0,1 ml einer unverdünnten, 72 h bei 37 °C bebrüteten CSL-Kultur von Candida albicans verwendet. Die Auswertung erfolgt nach einer Bebrütung von 72 h bei 37 °C. Es erfolgte außerdem eine Nachbeimpfung von CSA-Platten durch Ausstreichen der ? 72 h-Testlösungen", um das Wachstum der Testkeime zu beurteilen. Folgende Testkeime wurden eingesetzt: Sa: Staphylococcus aureus ATCC 6538 Ef: Enterococcus faecium ATCC 6057 Ec: Escherichia coli ATCC 11229 Pm: Proteus mirabilis ATCC 14153 Pa: Pseudomonas aeruginosa ATCC 15442 Ca: Candida albicans ATCC 10231

[2] = test system: Enterococcus faecium ATCC 6057; assay: Röhrchenverdünnungstest, bacteriostatic activity; parameters: key: +: Wachstum; -: kein Wachstum; details: 72 h bei 37 °C
Protocol: as §1

[3] = test system: Pseudomonas aeruginosa ATCC 15442; assay: Röhrchenverdünnungstest, bacteriostatic activity; parameters: key: +: Wachstum; -: kein Wachstum; details: 72 h bei 37 °C
Protocol: as §1

[4] = test system: Proteus mirabilis ATCC 14153; assay: Röhrchenverdünnungstest, bacteriostatic activity; parameters: key: +: Wachstum; -: kein Wachstum; details: 72 h bei 37 °C
Protocol: as §1

[5] = test system: Escherichia coli ATCC 11229; assay: Röhrchenverdünnungstest, bacteriostatic activity; parameters: key: +: Wachstum; -: kein Wachstum; details: 72 h bei 37 °C
Protocol: as §1

[6] = test system: Candida albicans ATCC 10231; assay: Quantitative suspension test, fungicidal activity (DGHM guideline)
Excerpt: Methodik: Untersucht wurde ein Gemisch G 1 von 99,4 % MMPP und 0,6 % Decylthiouroniumbromid und ein Gemisch G 2 von 99,7 % MMPP und 0,3 % Decylthiouroniumbromid im Vergleich zu MMPP als Monowirkstoff entsprechend der Richtlinie für die Prüfung und Bewertung chemischer Desinfektionsverfahren der Deutschen Gesellschaft für Hygiene und Mikrobiologie. Testkeim: Candida albicans ATCC 10231 Enthemmer: Tween, Lecithin, Cystein (TLC)

[7] = test system: Candida albicans ATCC 10231; assay: Röhrchenverdünnungstest, fungistatic activity; parameters: key: +: Wachstum; -: kein Wachstum; details: 72 h bei 37 °C
Protocol: as §1

Staphylococcus aureus = assay: Agar diffusion test, inhibition zone; details: no Decylthiouroniumbromid im Agar, 24 h
Protocol: Methodik: Decylthiouroniumbromid wurde in abgestuften Konzentrationen im Agar inkorporiert. In Stanzlöcher wurde eine Natriumperboratlösung ohne und mit Aktivierung pipettiert. Die Platten wurden mit Staphylococcus aureus beimpft und 24 h bebrütet. Der entstehende Hemmhof wurde gemessen.

## O=C(O)c1ccccc1C(=O)OO [MMPP, Magnesiummonoperphthalat]
[1]; geprüfte Konzentration 0,5%
  Wachstum des Testkeims (Minimale Hemmkonzentrationen): +
[1]; geprüfte Konzentration 0,6%
  Wachstum des Testkeims (Minimale Hemmkonzentrationen): -
[1]; geprüfte Konzentration 0,85%
  Wachstum des Testkeims (Minimale Hemmkonzentrationen): -
[1]; geprüfte Konzentration 0,425%
  Wachstum des Testkeims (Minimale Hemmkonzentrationen): +
[2]; geprüfte Konzentration 0,85%
  Wachstum des Testkeims (Minimale Hemmkonzentrationen): -
[2]; geprüfte Konzentration 0,425%
  Wachstum des Testkeims (Minimale Hemmkonzentrationen): +
[3]; geprüfte Konzentration 0,85%
  Wachstum des Testkeims (Minimale Hemmkonzentrationen): -
[3]; geprüfte Konzentration 0,425%
  Wachstum des Testkeims (Minimale Hemmkonzentrationen): -
[4]; geprüfte Konzentration 0,85%
  Wachstum des Testkeims (Minimale Hemmkonzentrationen): -
[4]; geprüfte Konzentration 0,425%
  Wachstum des Testkeims (Minimale Hemmkonzentrationen): +
[5]; geprüfte Konzentration 0,85%
  Wachstum des Testkeims (Minimale Hemmkonzentrationen): -
[5]; geprüfte Konzentration 0,425%
  Wachstum des Testkeims (Minimale Hemmkonzentrationen): -
[6]; ATCC10231, 5 min, 0,5 %, x = 5, read-out: log. Reduktionsfaktoren bei einer Einwirkungszeit von x min
  log reduction at 0.5 %: 0.55
[6]; ATCC10231, 5 min, 0,6 %, x = 5, read-out: log. Reduktionsfaktoren bei einer Einwirkungszeit von x min
  log reduction at 0.6 %: 0.83
[6]; ATCC10231, 5 min, 0,425 %, x = 5, read-out: log. Reduktionsfaktoren bei einer Einwirkungszeit von x min
  log reduction at 0.425 %: 1
[6]; ATCC10231, 0.25 h, 0,5 %, x = 15, read-out: log. Reduktionsfaktoren bei einer Einwirkungszeit von x min
  log reduction at 0.5 %: 0.88
[6]; ATCC10231, 0.25 h, 0,6 %, x = 15, read-out: log. Reduktionsfaktoren bei einer Einwirkungszeit von x min
  log reduction at 0.6 %: 0.91
[6]; ATCC10231, 0.25 h, 0,425 %, x = 15, read-out: log. Reduktionsfaktoren bei einer Einwirkungszeit von x min
  log reduction at 0.425 %: 1.5
[6]; ATCC10231, 0.5 h, 0,5 %, x = 30, read-out: log. Reduktionsfaktoren bei einer Einwirkungszeit von x min
  log reduction at 0.5 %: 1.28
[6]; ATCC10231, 0.5 h, 0,6 %, x = 30, read-out: log. Reduktionsfaktoren bei einer Einwirkungszeit von x min
  log reduction at 0.6 %: 1.7
[6]; ATCC10231, 0.5 h, 0,425 %, x = 30, read-out: log. Reduktionsfaktoren bei einer Einwirkungszeit von x min
  log reduction at 0.425 %: 3.6
[7]; geprüfte Konzentration 0,85%
  Wachstum des Testkeims (Minimale Hemmkonzentrationen): -
[7]; geprüfte Konzentration 0,425%
  Wachstum des Testkeims (Minimale Hemmkonzentrationen): +

## O=BO[O-].[Na+] [Perborat, Natriumperborat]
Staphylococcus aureus; Perboratkonzentration im Stanzloch 0,5%, Aktivator ja
  Hemmhofgröße: 13 mm
Staphylococcus aureus; Perboratkonzentration im Stanzloch 0,5%, Aktivator nein
  Hemmhofgröße: 0 mm
Staphylococcus aureus; Perboratkonzentration im Stanzloch 0,25%, Aktivator ja
  Hemmhofgröße: 0 mm
Staphylococcus aureus; Perboratkonzentration im Stanzloch 0,25%, Aktivator nein
  Hemmhofgröße: 0 mm
Staphylococcus aureus; Perboratkonzentration im Stanzloch 1%, Aktivator ja
  Hemmhofgröße: 15 mm
Staphylococcus aureus; Perboratkonzentration im Stanzloch 1%, Aktivator nein
  Hemmhofgröße: 11 mm
Staphylococcus aureus; Perboratkonzentration im Stanzloch 2%, Aktivator ja
  Hemmhofgröße: 19 mm
Staphylococcus aureus; Perboratkonzentration im Stanzloch 2%, Aktivator nein
  Hemmhofgröße: 13 mm
